Common to all, as to assay: relative viability (nuclei count vs DMSO), 5 days (fraction); higher = more cells survive
Compound in the test “Ibrutinib + Alpelisib”: C=CC(=O)N1CCC[C@@H](n2nc(-c3ccc(Oc4ccccc4)cc3)c3c(N)ncnc32)C1 [Ibrutinib] + Cc1nc(NC(=O)N2CCC[C@H]2C(N)=O)sc1-c1ccnc(C(C)(C)C(F)(F)F)c1 [Alpelisib] (partner 2 µM)
Summed up: (§1)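 Each reported value is a median over duplicate plates. It expresses relative viability: treated-well nuclei count divided by vehicle-well nuclei count. Lung cancer cell lines in 1536-well plates were dosed by pin tool a day after seeding, alone with one drug or with a fixed anchor-drug dose plus five library-drug doses (not always all listed) in √10 steps, and nuclei were counted after 5 days.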

Compound in the test “Ibrutinib + Olaparib”: C=CC(=O)N1CCC[C@@H](n2nc(-c3ccc(Oc4ccccc4)cc3)c3c(N)ncnc32)C1 [Ibrutinib] + O=C(c1cc(Cc2n[nH]c(=O)c3ccccc23)ccc1F)N1CCN(C(=O)C2CC2)CC1 [Olaparib] (partner 8 µM)
In a few lines:
as §1

Compound in the test “BMX-IN-1 + Olaparib”: C=CC(=O)Nc1cc(-n2c(=O)ccc3cnc4ccc(-c5ccc(NS(C)(=O)=O)cc5)cc4c32)ccc1C [BMX-IN-1] + O=C(c1cc(Cc2n[nH]c(=O)c3ccccc23)ccc1F)N1CCN(C(=O)C2CC2)CC1 [Olaparib] (partner 8 µM)
In a few lines: as §1

Compound in the test “PAC-1 + Crizotinib”: C=CCc1cccc(/C=N/NC(=O)CN2CCN(Cc3ccccc3)CC2)c1O [PAC-1] + C[C@@H](Oc1cc(-c2cnn(C3CCNCC3)c2)cnc1N)c1c(Cl)ccc(F)c1Cl [Crizotinib] (partner 1 µM)
In a few lines:
as §1

Take SK-LU-1: the relative viability with Ibrutinib + Alpelisib (first compound 0.005 µM) turned out to be 0.751; in the test with Ibrutinib + Alpelisib (first compound 0.01581 µM), 1.06; with Ibrutinib + Alpelisib (first compound 0.05 µM), 1.31; in the test with Ibrutinib + Alpelisib (first compound 0.1581 µM), 1.06; in the test with Ibrutinib + Alpelisib (first compound 0.5 µM), 1.06; with Ibrutinib + Olaparib (first compound 0.005 µM) it was 0.411. For the same cell line, the relative viability with Ibrutinib + Olaparib (first compound 0.01581 µM) is 0.426; with Ibrutinib + Olaparib (first compound 0.05 µM), 0.447; with Ibrutinib + Olaparib (first compound 0.1581 µM) it was 0.722; with Ibrutinib + Olaparib (first compound 0.5 µM), 0.371; with BMX-IN-1 + Olaparib (first compound 0.02 µM), 0.491; with BMX-IN-1 + Olaparib (first compound 0.2 µM), 0.403. For the same cell line, the relative viability with BMX-IN-1 + Olaparib (first compound 0.6325 µM) worked out at 0.516; with BMX-IN-1 + Olaparib (first compound 2 µM), 0.506; with PAC-1 + Crizotinib (first compound 0.02 µM), 0.788; with PAC-1 + Crizotinib (first compound 0.06325 µM), 0.856; with PAC-1 + Crizotinib (first compound 0.2 µM), 0.93; with PAC-1 + Crizotinib (first compound 2 µM), 0.794.

Take SW 1573: the relative viability in the test with Ibrutinib + Alpelisib (first compound 0.005 µM) is 0.632; with Ibrutinib + Alpelisib (first compound 0.01581 µM), 0.807; with Ibrutinib + Alpelisib (first compound 0.05 µM), 0.844; with Ibrutinib + Alpelisib (first compound 0.1581 µM), 0.749; with Ibrutinib + Alpelisib (first compound 0.5 µM) it was 0.811; with Ibrutinib + Olaparib (first compound 0.005 µM), 0.57. Moreover, the relative viability with Ibrutinib + Olaparib (first compound 0.01581 µM) was 0.401; with Ibrutinib + Olaparib (first compound 0.05 µM), 0.51; in the test with Ibrutinib + Olaparib (first compound 0.1581 µM), 0.456; with Ibrutinib + Olaparib (first compound 0.5 µM) it was 0.485; with BMX-IN-1 + Olaparib (first compound 0.02 µM), 0.592; in the test with BMX-IN-1 + Olaparib (first compound 0.2 µM), 0.49. In addition, the relative viability with BMX-IN-1 + Olaparib (first compound 0.6325 µM) was 0.433; in the test with BMX-IN-1 + Olaparib (first compound 2 µM) it was 0.343; with PAC-1 + Crizotinib (first compound 0.02 µM), 0.786; with PAC-1 + Crizotinib (first compound 0.06325 µM), 0.658; with PAC-1 + Crizotinib (first compound 0.2 µM), 0.701; with PAC-1 + Crizotinib (first compound 2 µM) it was 0.839.

With UMC-11, the relative viability with Ibrutinib + Alpelisib (first compound 0.005 µM) worked out at 0.957; with Ibrutinib + Alpelisib (first compound 0.01581 µM), 1.01; with Ibrutinib + Alpelisib (first compound 0.05 µM) it was 0.958; with Ibrutinib + Alpelisib (first compound 0.1581 µM), 1.01; with Ibrutinib + Alpelisib (first compound 0.5 µM) it was 0.964; with Ibrutinib + Olaparib (first compound 0.005 µM), 0.338. Besides, the relative viability in the test with Ibrutinib + Olaparib (first compound 0.01581 µM) turned out to be 0.392; with Ibrutinib + Olaparib (first compound 0.05 µM), 0.538; in the test with Ibrutinib + Olaparib (first compound 0.1581 µM) it was 0.663; in the test with Ibrutinib + Olaparib (first compound 0.5 µM) it was 0.377; with BMX-IN-1 + Olaparib (first compound 0.02 µM) it was 0.402; in the test with BMX-IN-1 + Olaparib (first compound 0.2 µM) it was 0.389. In addition, the relative viability with BMX-IN-1 + Olaparib (first compound 0.6325 µM) worked out at 0.364; in the test with BMX-IN-1 + Olaparib (first compound 2 µM), 0.364; in the test with PAC-1 + Crizotinib (first compound 0.02 µM), 0.62; with PAC-1 + Crizotinib (first compound 0.06325 µM) it was 0.606; with PAC-1 + Crizotinib (first compound 0.2 µM), 0.546; with PAC-1 + Crizotinib (first compound 2 µM) it was 0.666.

The record behind these values is the supplement of paper PMC10307832.
